Laboratory results: ChEMBL document CHEMBL5335780, “The emerging role of mixed lineage kinase 3 (MLK3) and its potential as a target for neurodegenerative diseases therapies” (Eur J Med Chem, 2023)

Tests used:
[1] = biological target: Mitogen-activated protein kinase kinase kinase 11 (Homo sapiens, UniProt Q16584); test: Inhibition of MLK3 (unknown origin)
[2] = biological target: Mitogen-activated protein kinase kinase kinase 9 (Homo sapiens, UniProt P80192); test: Inhibition of MLK1 (unknown origin)
Mitogen-activated protein kinase kinase kinase 9, sequence (P80192 whole entry): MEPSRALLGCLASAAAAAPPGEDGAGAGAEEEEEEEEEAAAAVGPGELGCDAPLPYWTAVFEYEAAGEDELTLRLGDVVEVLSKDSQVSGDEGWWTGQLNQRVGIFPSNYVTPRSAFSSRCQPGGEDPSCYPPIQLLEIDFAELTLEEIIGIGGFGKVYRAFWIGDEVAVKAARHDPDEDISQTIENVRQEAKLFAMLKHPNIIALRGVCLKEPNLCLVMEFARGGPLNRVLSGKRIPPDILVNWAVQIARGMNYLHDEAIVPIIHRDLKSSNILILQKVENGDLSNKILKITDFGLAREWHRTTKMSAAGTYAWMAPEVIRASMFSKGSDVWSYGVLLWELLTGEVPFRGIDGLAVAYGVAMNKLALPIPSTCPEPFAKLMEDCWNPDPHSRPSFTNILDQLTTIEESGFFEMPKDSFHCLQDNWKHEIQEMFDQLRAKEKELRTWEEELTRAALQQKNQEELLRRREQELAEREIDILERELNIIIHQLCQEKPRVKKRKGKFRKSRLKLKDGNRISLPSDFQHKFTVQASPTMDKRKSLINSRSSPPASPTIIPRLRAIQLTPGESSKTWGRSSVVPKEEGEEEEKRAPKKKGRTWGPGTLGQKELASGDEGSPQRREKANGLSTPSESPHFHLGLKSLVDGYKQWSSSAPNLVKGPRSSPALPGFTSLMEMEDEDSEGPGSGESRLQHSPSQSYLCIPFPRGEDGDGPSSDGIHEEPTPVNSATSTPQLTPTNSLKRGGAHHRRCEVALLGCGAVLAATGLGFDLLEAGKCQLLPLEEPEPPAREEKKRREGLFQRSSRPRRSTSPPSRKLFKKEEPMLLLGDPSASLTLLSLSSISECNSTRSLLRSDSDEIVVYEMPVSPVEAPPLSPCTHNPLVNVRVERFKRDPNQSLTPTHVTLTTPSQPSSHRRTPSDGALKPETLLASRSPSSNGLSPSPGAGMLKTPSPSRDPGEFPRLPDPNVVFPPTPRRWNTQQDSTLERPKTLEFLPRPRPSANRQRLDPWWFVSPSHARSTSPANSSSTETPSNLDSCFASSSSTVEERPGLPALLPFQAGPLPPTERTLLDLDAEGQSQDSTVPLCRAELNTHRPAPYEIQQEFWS

Mitogen-activated protein kinase kinase kinase 11, sequence (Q16584 whole entry): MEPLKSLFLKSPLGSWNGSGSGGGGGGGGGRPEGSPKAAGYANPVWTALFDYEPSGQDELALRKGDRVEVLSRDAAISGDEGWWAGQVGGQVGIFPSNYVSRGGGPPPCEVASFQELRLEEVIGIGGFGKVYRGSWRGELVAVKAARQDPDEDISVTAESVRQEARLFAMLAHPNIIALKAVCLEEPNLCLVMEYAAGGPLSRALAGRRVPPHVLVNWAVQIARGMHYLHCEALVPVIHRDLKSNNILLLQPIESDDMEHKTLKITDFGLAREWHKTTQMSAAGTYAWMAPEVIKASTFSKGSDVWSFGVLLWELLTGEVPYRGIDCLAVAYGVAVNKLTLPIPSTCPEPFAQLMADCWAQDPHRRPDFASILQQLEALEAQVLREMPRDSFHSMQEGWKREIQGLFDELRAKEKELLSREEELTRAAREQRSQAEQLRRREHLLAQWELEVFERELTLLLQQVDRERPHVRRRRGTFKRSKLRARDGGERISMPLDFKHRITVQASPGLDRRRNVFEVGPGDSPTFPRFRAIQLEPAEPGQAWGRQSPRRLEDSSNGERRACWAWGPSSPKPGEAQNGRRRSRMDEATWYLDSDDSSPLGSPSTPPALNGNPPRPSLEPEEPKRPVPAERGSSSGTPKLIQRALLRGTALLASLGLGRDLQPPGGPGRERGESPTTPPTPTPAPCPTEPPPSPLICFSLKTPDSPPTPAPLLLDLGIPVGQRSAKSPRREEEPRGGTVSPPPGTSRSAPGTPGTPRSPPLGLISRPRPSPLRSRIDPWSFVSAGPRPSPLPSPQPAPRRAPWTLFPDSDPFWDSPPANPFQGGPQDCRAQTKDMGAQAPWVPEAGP

Q: Which IC50 [1] does the source give for `OCCN1CCN(Cc2ccc(-c3cnc4[nH]cc(-c5cccc(Cl)c5)c4c3)cc2)CC1` here?
A: 23.7 nM

Q: What about the IC50 [2] of the same molecule?
A: 44.7 nM
